Target: T1, human serum albumin (HSA) (Homo sapiens, UniProt P02768)
T1 construct: gene ALB
Test: Trp-214 fluorescence quenching titration (association constant KA at […] K), supported by time-resolved fluorescence, UV-Vis, CD and AFM; quenching described as dynamic
Assay type: binding
Details: read-out: Equation (3) / K A/M^-1 (converted)

T1 sequence (P02768 25-609): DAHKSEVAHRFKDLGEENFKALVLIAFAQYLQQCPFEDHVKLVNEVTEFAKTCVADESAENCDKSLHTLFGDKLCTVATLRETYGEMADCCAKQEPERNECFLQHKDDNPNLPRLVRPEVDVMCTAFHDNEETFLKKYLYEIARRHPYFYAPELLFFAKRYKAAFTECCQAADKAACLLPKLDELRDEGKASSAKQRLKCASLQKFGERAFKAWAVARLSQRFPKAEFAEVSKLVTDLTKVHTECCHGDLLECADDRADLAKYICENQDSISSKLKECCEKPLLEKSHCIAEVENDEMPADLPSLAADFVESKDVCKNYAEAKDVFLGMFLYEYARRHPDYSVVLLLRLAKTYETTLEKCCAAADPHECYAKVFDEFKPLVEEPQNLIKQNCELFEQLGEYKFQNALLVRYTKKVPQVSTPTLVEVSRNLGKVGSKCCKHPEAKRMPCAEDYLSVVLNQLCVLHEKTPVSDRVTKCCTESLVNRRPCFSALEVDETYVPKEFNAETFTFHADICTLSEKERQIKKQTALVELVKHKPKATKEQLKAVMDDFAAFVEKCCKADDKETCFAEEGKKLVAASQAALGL

O=C1C=C2C(=CCOC2O)O1 (stereo not shown) [patulin] was tested. Which Kd did it give?
The Kd was 38.5 µM.
